By pKi is commonly meant the negative decadic logarithm of the Ki, by convention in mol/L. Usually melting point stands for the temperature of the solid-liquid transition.

pKi: −log10 of the molar value.

The record followed here is patent US7544708B2, “Azabicyclo derivatives as muscarinic receptor antagonists” (Ranbaxy Laboratories Limited, priority 2002, dated 2009).

Data set [1] deals with T1, M3 muscarinic receptor subtype (rat submandibular gland) (Rattus norvegicus, UniProt P08483).
T1 construct: Submandibular glands and heart were isolated and placed in ice cold homogenising buffer; from tissue; host or cells: rat submandibular gland membranes
T1 sequence (P08483 whole entry): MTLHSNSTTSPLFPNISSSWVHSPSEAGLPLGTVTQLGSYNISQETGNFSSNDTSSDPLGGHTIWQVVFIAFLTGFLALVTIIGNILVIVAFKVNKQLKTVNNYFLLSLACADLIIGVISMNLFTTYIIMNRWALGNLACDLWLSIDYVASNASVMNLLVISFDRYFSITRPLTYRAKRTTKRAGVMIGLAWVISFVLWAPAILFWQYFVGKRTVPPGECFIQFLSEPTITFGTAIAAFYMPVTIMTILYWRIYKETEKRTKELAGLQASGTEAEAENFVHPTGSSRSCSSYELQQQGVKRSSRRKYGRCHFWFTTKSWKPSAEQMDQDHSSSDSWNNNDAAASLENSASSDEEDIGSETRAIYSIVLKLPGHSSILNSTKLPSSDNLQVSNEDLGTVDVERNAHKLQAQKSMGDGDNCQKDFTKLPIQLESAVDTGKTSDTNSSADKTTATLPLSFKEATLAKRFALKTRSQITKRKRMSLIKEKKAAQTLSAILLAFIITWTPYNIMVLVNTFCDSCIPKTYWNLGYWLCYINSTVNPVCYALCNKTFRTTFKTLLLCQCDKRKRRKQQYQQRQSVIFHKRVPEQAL
The data set can be described thus: Radioligand binding assay, [3H]-N-methylscopolamine, M3. Particulars: Receptor Binding Assay M3 Pki. On the procedure:
(§1) The membrane preparation was done with the following modifications: a low spin step of 500 g for 10 minutes at 4° C. was used; the buffer was 20 mM HEPES, 10 mM EDTA, at pH 7.4; the high speed spin was done at 40,000 g and the homogenate was passed through a filter gauge before any spinning.
(§2) Membrane preparation: Submandibular glands and heart were isolated and placed in ice cold homogenising buffer (HEPES 20 mM, 10 mM EDTA, pH 7.4) immediately after sacrifice. The tissues were homogenised in 10 volumes of homogenising buffer and the homogenate was filtered through two layers of wet gauze and filtrate was centrifuged at 500 g for 10 min. The supernatant was subsequently centrifuged at 40,000 g for 20 min. The pellet thus obtained was resuspended in same volume of assay buffer (HEPES 20 mM, EDTA 5 mM, pH 7.4) and were stored at −700C until the time of assay.
(§3) Ligand binding assay: The compounds were dissolved and diluted in DMSO. The membrane homogenates (150-250 μg protein) were incubated in 250 μl of assay buffer (HEPES 20 mM, pH 7.4) at 24-25° C. for 3 h. […] The incubation was terminated by vacuum filtration over GF/B fiber filters (Wallac). The filters were then washed with ice cold 50 mM Tris HCl buffer (pH 7.4). The filter mats were dried and bound radioactivity retained on filters was counted. The IC50 and Kd were estimated by using the non-linear curve fitting program using G Pad Prism software.

Data set [2] concerns the target T2, M2 muscarinic receptor subtype (rat heart) (Rattus norvegicus, UniProt P10980).
T2 construct: Submandibular glands and heart were isolated and placed in ice cold homogenising buffer; from tissue; host or cells: rat heart membranes
T2 sequence (P10980 1-466): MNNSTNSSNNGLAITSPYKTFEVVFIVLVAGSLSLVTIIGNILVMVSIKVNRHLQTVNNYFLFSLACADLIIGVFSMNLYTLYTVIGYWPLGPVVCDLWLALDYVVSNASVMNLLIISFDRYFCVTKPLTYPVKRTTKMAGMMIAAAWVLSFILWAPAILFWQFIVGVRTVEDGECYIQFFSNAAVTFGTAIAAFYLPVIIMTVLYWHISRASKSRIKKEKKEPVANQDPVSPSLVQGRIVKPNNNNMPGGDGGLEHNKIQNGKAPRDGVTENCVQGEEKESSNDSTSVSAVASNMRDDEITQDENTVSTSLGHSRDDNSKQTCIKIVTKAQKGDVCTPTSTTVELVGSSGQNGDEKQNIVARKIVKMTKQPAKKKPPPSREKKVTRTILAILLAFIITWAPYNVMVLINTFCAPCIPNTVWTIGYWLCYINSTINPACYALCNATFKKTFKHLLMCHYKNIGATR
Nature of the data set: Radioligand binding assay, [3H]-N-methylscopolamine, M2. Particulars: Receptor Binding Assay M2 pKi. Here is the method:
as §1, §2, §3

`O=C(NC[C@H]1[C@@H]2CNC[C@@H]21)C(O)(c1ccccc1)C1CCCC1` (mixture of isomers) [Compound 1, (2R,2S) (1α,5α,6α)-N-[3-azabicyclo[3.1.0]hexyl-6-(aminomethyl)-yl]-2-hydroxy-2-cyclopentyl-2-phenyl acetamide] registered a melting point of 149 to 151 °C. The pKi in data set [1] is 9.28. In data set [2], the negative-log Ki (pKi) was 7.92.
